# According to patent US20060241114A1, “Derivatives of azasugars as anticancer agents” (priority 2003, published 2006):
# Columns and labels:
# [1] = tested on: DU145 (prostate carcinoma); assay: In vitro growth inhibition screen (sulphorhodamine B), DU145; format: cell-based, human; conditions: DU145 cells, incubated for 48 hours, sulphorhodamine B dye; read-out: GI50 (concentration which inhibits the cell growth by 50%), DU145 Prostate carcinoma
# Description: (§1) Each agent was tested over a broad concentration range (ten-fold dilutions starting from ≧100 μM to 10 nM) against 6 human cancer cell lines which was comprised of different tumor types. These are DU145 (prostate carcinoma), HT29 (colorectal adenocarcinoma), LOX (melanoma), MCF7 (breast adenocarcinoma), MCF7ADR (adriamycin resistant breast adenocarcinoma), and U251 (human glioblastoma). A standard compound doxorubicin was tested in each assay as a positive control. The cells were maintained in growing condition in RPMI 1640 medium containing 10% fetal calf serum and incubated at 37° C. under 5% CO2 atmosphere. All cell lines were inoculated onto a series of standard 96-well microtitre plate on day zero, followed by twenty four-hour incubation in the absence of test compound. The inoculation densities in the screen were as per Monk et al., (1991) J. Natl. Cancer Inst., 83, 757-766. All NCEs were dissolved in DMSO and diluted further in culture medium. An aliquot of each dilution was added to the growing cells in 96 well plates and incubated for 48 hours. After incubation, the assay was terminated by adding 50 μL of trichloroacetic acid (TCA) and incubating at 4° C. for 30 min. The precipitated cells were washed and stained with sulphorhodamine B dye for 30 min and the excess dye was washed off with acetic acid. Adsorbed dye was solubilised in Tris base (alkaline pH) and quantitated by measuring the OD at […] in ELISA READER. GI50 (concentration which inhibits the cell growth by 50%) was calculated according to Boyd and Paull, (1995) Drug Dev. Res., 34, 91-109.
# [2] = tested on: U251 (human glioblastoma); assay: In vitro growth inhibition screen (sulphorhodamine B), U251; format: cell-based; conditions: U251 cells, incubated for 48 hours, sulphorhodamine B dye; read-out: GI50 (concentration which inhibits the cell growth by 50%), U251 Human glioblastoma astrocytoma
# Description: as §1
# [3] = tested on: HT29 (colorectal adenocarcinoma); assay: In vitro growth inhibition screen (sulphorhodamine B), HT29; format: cell-based, human; conditions: HT29 cells, incubated for 48 hours, sulphorhodamine B dye; read-out: GI50 (concentration which inhibits the cell growth by 50%), HT29 Colorectal adenocarcinoma
# Description: as §1
# LOX (melanoma) = assay: In vitro growth inhibition screen (sulphorhodamine B), LOX; format: cell-based, human; conditions: LOX cells, incubated for 48 hours, sulphorhodamine B dye; read-out: GI50 (concentration which inhibits the cell growth by 50%), LOX Melanoma
# Description: as §1
# [4] = tested on: MCF7ADR (adriamycin resistant breast adenocarcinoma); assay: In vitro growth inhibition screen (sulphorhodamine B), MCF7ADR; format: cell-based, human; conditions: MCF7ADR cells, incubated for 48 hours, sulphorhodamine B dye; read-out: GI50 (concentration which inhibits the cell growth by 50%), MCF7ADR Adriamycin Resistant Breast adenocarcinoma
# Description: as §1
# [5] = tested on: MCF7 (breast adenocarcinoma); assay: In vitro growth inhibition screen (sulphorhodamine B), MCF7; format: cell-based, human; conditions: MCF7 cells, incubated for 48 hours, sulphorhodamine B dye; read-out: GI50 (concentration which inhibits the cell growth by 50%), MCF7 Breast adenocarcinoma
# Description: as §1
Compound,GI50 [1] [µM],GI50 [2] [µM],GI50 [3] [µM],GI50 (LOX (melanoma)) [µM],GI50 [4] [µM],GI50 [5] [µM]
"CCCN1C(=O)[C@H](OCc2ccccc2)[C@@H](OCc2ccccc2)[C@H](OCc2ccccc2)[C@H]1CNC(=O)CN1CCN(c2ncccn2)CC1 [Compound No. 54, 2,3,4-Tri-O-benzyl-6-N-{2-[4-(pyrimidyl)piperazinyl]acetyl}-N-propyl-D-gluco-δ-lactam]",5,3.2,3.6,2.3,6.6,4.1
"CCCN1C(=O)[C@H](OCc2ccccc2)[C@@H](OCc2ccccc2)[C@H](OCc2ccccc2)[C@H]1CNC(=O)Nc1ccccc1 [Compound No. 10, 2,3,4-Tri-O-benzyl-6-N-{[phenyl]aminocarbonylamino}-N-propyl-D-gluco-δ-lactam]",39.3,16.4,36.9,12.5,16.7,34.7
"CCCN1C(=O)C(OCc2ccccc2)C(OCc2ccccc2)C(OCc2ccccc2)C1CNC(=O)NS(=O)(=O)c1ccc(Cl)cc1 [Compound No. 12, 2,3,4-Tri-O-benzyl-6-N-{[p-chlorophenylsulfonyl]aminocarbonylamino}-N-propyl-D-gluco-δ-lactam]",48.7,61.8,29.3,41.6,35,88.2
"CCCN1C(=O)[C@H](O)[C@@H](O)[C@H](O)[C@H]1CNC(=O)Nc1ccc(C)cc1 [Compound No. 26, 6-N-{[p-Tolyl]aminocarbonylamino}-N-propyl-D-gluco-δ-lactam]",278,520,209,116,235,136
CCCN1C(=O)[C@H](OCc2ccccc2)[C@@H](OCc2ccccc2)[C@H](OCc2ccccc2)[C@H]1CNC(=O)CN1C(=O)c2ccccc2C1=O [Compound No. 63],60.6,117,42,55.3,246,66.8
"C=CCN1C[C@H](OCc2ccccc2)[C@@H](OCc2ccccc2)[C@H](OCc2ccccc2)[C@H]1COC(=O)Nc1ccc(Cl)cc1 [Compound No. 44, N-Allyl-2,3,4-tri-O-benzyl-6-{p-chlorophenylcarbamate}-1,5-dideoxy-1,5-imino glucitol]",88.5,29.8,29.2,8.7,7.5,2.3
"CCCN1C(=O)[C@H](O)[C@@H](O)[C@H](O)[C@H]1CNC(=O)Nc1ccccc1C(F)(F)F [Compound No. 25, 6-N-{[2-Trifluoromethylphenyl]aminocarbonylamino}-N-propyl-D-gluco-δ-lactam]",386,278,311,94.6,228,190
"C=CCN1C(=O)[C@H](OCc2ccccc2)[C@@H](OCc2ccccc2)[C@H](OCc2ccccc2)[C@H]1COS(=O)(=O)c1ccc(C)cc1 [Compound No. 1, N-Allyl-6-O-(p-toluenesulphonyl)-2,3,4-tri-O-benzyl-D-gluco-δ-lactam]",364,> 624,203,> 624,> 624,378
"CCCN1C(=O)[C@H](O)[C@@H](O)[C@H](O)[C@H]1CN1C(=O)CCCC1=O [Compound No. 87, 6-(2,6-Diketopiperidino)-N-propyl-D-gluco-δ-lactam]",131,101,108,244,96.9,74.2
"CCCN1C(=O)[C@H](OCc2ccccc2)[C@@H](OCc2ccccc2)[C@H](OCc2ccccc2)[C@H]1CNC(=O)Nc1ccc(C)cc1 [Compound No. 6, 2,3,4-Tri-O-benzyl-6-N-{[p-tolyl]aminocarbonylamino}-N-propyl-D-gluco-δ-lactam]",50.1,82.3,47.2,67.4,110,433
"2,3,4-Tri-O-benzyl-6-N-[3-{2-iminocarbonyl aminoethyl)-indolyl]-N-propyl-D-gluco-δ-lactam [Compound No. 78]",57.3,4.3,33.6,45.1,29.8,9.2
"CCCN1C(=O)[C@H](OCc2ccccc2)[C@@H](OCc2ccccc2)[C@H](OCc2ccccc2)[C@H]1CNC(=O)Oc1ccccc1 [Compound No. 74, 2,3,4-Tri-O-benzyl-6-N-[phenyl carbamate]-N-propyl-D-gluco-δ-lactam]",90.9,34.2,10.7,51.8,26.1,25.4
"6-N-{2-[1,5-Dideoxy-1,5-imino-glucit-6-ol]acetyl}-N-propyl-D-gluco-δ-lactam [Compound No. 67]",81.6,91.5,106,67.6,75.4,107
"CCCN1C(=O)[C@H](OCc2ccccc2)[C@@H](OCc2ccccc2)[C@H](OCc2ccccc2)[C@H]1CNC(=O)N1CCc2ccccc21 [Compound No. 77, 2,3,4-Tri-O-benzyl-6-N-{1,2-dihydro(2H)-indolylcarboxamido}-N-propyl-D-gluco-δ-lactam]",49.4,28.6,17.5,29.5,69.1,56.1
"CCCN1C(=O)[C@H](O)[C@@H](O)[C@H](O)[C@H]1CNC(=O)C12CC3CC(CC(C3)C1)C2 [Compound No. 50, 6-(Adamantanecarboxamido)-N-propyl-D-gluco-δ-lactam]",108,144,38.1,97.2,138,82.8
"CCCN1C(=O)C(O)C(O)C(O)C1CNC(=O)NC(C)C [Compound No. 30, 6-N-{[Isopropyl]aminocarbonylamino}-N-propyl-D-gluco-δ-lactam]",119,100,42.6,226,209,180
"C=CCN1C(=O)C(OCc2ccccc2)C(OCc2ccccc2)C(OCc2ccccc2)C1CN1C(=O)CCCC1=O [Compound No. 82, N-Allyl-2,3,4-tri-O-benzyl-6-(2,6-diketopiperidino)-D-gluco-δ-lactam]",24.8,12.5,23.5,8.5,17.5,9.9
"CCCN1C(=O)[C@H](OCc2ccccc2)[C@@H](OCc2ccccc2)[C@H](OCc2ccccc2)[C@H]1CNC(=O)Nc1cccc(C(C)=O)c1 [Compound No. 14, 2,3,4-Tri-O-benzyl-6-N-{[3-acetylphenyl]aminocarbonylamino}-N-propyl-D-gluco-δ-lactam]",21,15,30.4,7.6,6.7,35.7
"N-Propyl-6-[4-chlorophenyl-3(2H,4H)-1,2,4-triazol-3-onyl]-D-gluco-δ-lactam [Compound No. 88]",144,90.7,111,135,107,102
